Source: patent publication US12295997B2, “Prostate neoantigens and their uses” (Janssen Biotech, Inc., priority 2020, dated 2025)

B1: FGLTTLAGRSSHGTSGLRAATHTKSGDGGQGAARQCEKLLELARATRPWGRSTSASSRWTHRGYMCPPRCAVACW (peptide, listed as Homo sapiens)
chain: FGLTTLAGRSSHGTSGLRAATHTKSGDGGQGAARQCEKLLELARATRPWGRSTSASSRWTHRGYMCPPRCAVACW
notes: PEX10 alternative splicing
B2: LLNAEDYRCAIHSKEIYLLSPSPHQAMDKFSLCCINCNLCLHVFLLLLFFQNKDVWLISNIILLWIYGGI (peptide, listed as Homo sapiens)
chain: LLNAEDYRCAIHSKEIYLLSPSPHQAMDKFSLCCINCNLCLHVFLLLLFFQNKDVWLISNIILLWIYGGI
notes: TM9SF3 alternative splicing

Tests used:
[1] = test system: CD8+ T cells in PBMCs from human patients with metastatic castrate-resistant prostate cancer; assay: Patient PBMC restimulation assay (in vitro immunogenicity, TNFα/IFNγ intracellular flow cytometry); assay type: cell-based; conditions: 9-mer peptide; for Maximum fold change over negative control: TNFα+IFNγ+CD8+ T cells, highest across PBMC donors evaluated; for Maximum frequency of TNFα^+IFNγ^+CD8^+ T cells (Percent): greatest frequency among all tested PBMC donors; for Immunogenic: patient PBMC restimulation
Description: PBMCs from human patients with metastatic castrate-resistant prostate cancer were thawed using media (RPMI 1640 supplemented with Glutamax, 10% HI FBS, and 1× Sodium Pyruvate). Cells were counted and plated in a 96 well round bottom microplate at a concentration of 250,000 viable cells per well. Lyophilized peptides were solubilized in 100% DMSO and diluted in media to 10 μg/mL. Neoantigen peptides were added in equal volume to PBMCs for a final concentration of 5 μg/mL. CEF Peptide Pool “Plus” (Cellular Technologies, Ltd.) was utilized as a positive control and DMSO at the same final concentration as the experimental peptides was utilized as a negative control. Human IL-15 (Peprotech) was added to all wells at final concentration of 10 ng/mL.
Plates were incubated at 37° C. (5% CO2) for a total of 13 days. Media was refreshed every 2 days with IL-15 (10 ng/mL final concentration) and IL-2 (R&D systems, 10 IU/mL final concentration). On day 12, PBMCs were re-stimulated with identical experimental peptides or controls, at same concentration as peptide stimulation on Day 1. After 1-hour incubation, protein Inhibitor Cocktail (eBioscience) was added to every well and plate was incubated overnight.
On day 13, cells were stained for intracellular flow cytometry analysis. The cells were washed with PBS and stained with Live/Dead Fixable Aqua Dead Cell stain (Thermo-Fisher). Following the live/dead stain, cells were blocked using Biotin-Free Fc Receptor Blocker (Accurate Chemical & Scientific Corp). Extracellular cellular flow panel ([…] per well in 50 μL) consisted of CD3 PerCP-Cy5.5 (Biolegend), CD4 BV421 (Biolegend), and CD8 APC-Cy7 (Biolegend). After extracellular staining, cells were fixed using Foxp3/fTranscription Factor Staining Buffer Set (eBioscience) and stained for intracellular proteins (1:50 dilution) using TNFα FITC (R&D Systems) and IFNγ BV785 (Biolegend). Cells were washed and resuspended in stain buffer and analyzed using a BD Celesta flow cytometer.
Flow cytometry cell staining analysis was completed using FlowJo v10. Cells were gated on live, singlet, CD3+ cells. The CD8+ T cells were analyzed for TNFα/IFNγ expression and the frequency of double positive TNFα/IFNγ CD8+ T cells was recorded. Responses were assessed to be positive when the frequency of double positive TNFα/IFNγ CD8+ T cells due to stimulation with an experimental peptide was increased greater than or equal to 2-fold over the DMSO only negative control for that patient. Peptides were analyzed in 1 to 7 patient samples.
The 9 mer fragments shown in Table 13 were assessed for their ability to activate T cells using the Patient PBMC restimulation assay described in Example 1 using TNFα and IFNγ production by CD8^+ T cells as a readout. Self-antigens shown in Table 15 were also used in the assays. […] PBMCs from ten patients were evaluated.

[2] = test system: CD8+ and CD4+ T cells (autologous CD3+ Pan-T cells isolated from human normal PBMCs); assay: Exogenous autologous normal donor restimulation assay (15-mer overlapping peptide pools on CD1c+ dendritic cells, TNFα/IFNγ flow cytometry); assay type: cell-based; conditions: 15-mer overlapping peptide pool; for Max. Fold Change over background CD4+ TNFαINFγ double positive DP / Max. Fold Change over background CD8+ TNFαINFγ double positive DP / Max. Frequency of CD4+ TNFαINFγ DP / Max. Frequency of CD8+ TNFαINFγ DP: Table 28, additional neoantigens, highest across normal donors
In short: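 Autologous CD3+ Pan-T cells from normal donors were co-cultured 12 days with irradiated CD1c+ DCs pulsed with 15-mer overlapping neoantigen peptide pools at 2.5–10 μg/mL, with IL-15 and IL-2 support. Cells were restimulated on day 11, then TNFα/IFNγ double-positive CD8+ and CD4+ frequencies read by flow. Positive means ≥3-fold over DMSO and ≥0.01%.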

[3] = Table 25, highest frequency across normal donors

| Molecule | Maximum fold change over negative control [1] | Maximum frequency of TNFα^+IFNγ^+CD8^+ T cells (Percent) [1] [%] | Immunogenic [1] | Maximum Fold Change Over Background CD4+ cells ([2]; Table 25, TNFα+IFNγ+ CD4+ T cells, highest fold change over negative control across normal donors) | Maximum Fold Change Over Background CD8+ cells ([2]; Table 25, TNFα+IFNγ+ CD8+ T cells, highest fold change over negative control across normal donors) | Maximum Frequency of TNFα/IFNγ Double Positive CD4+ T cells [2, 3] | Maximum Frequency of TNFα/IFNγ Double Positive CD8+ T cells [2, 3] | Max. Fold Change over background CD4+ TNFαINFγ double positive DP [2] | Max. Fold Change over background CD8+ TNFαINFγ double positive DP [2] | Max. Frequency of CD4+ TNFαINFγ DP [2] | Max. Frequency of CD8+ TNFαINFγ DP [2] |
| --- | --- | --- | --- | --- | --- | --- | --- | --- | --- | --- | --- |
| P27 (LHPQRETFTPRWSGANYWKLAFPVGAEGTFPAAATQRGVVRPA; listed as Homo sapiens) [Peptide P27] | 3.43 | 0.430 | Yes |  |  |  |  |  |  |  |  |
| P37 (MAGGVLRRLLCREPDRDGDKGASREETVVPLHIGDPVVLPGIGQCYSALF; listed as Homo sapiens) [Peptide P37] | 3.13 | 1.160 | Yes |  |  |  |  |  |  |  |  |
| P50 (QMAVIQYSCMGLMVFAM; listed as Homo sapiens) [Peptide P50] | 5.14 | 0.190 | Yes |  |  |  |  |  |  |  |  |
| NSKMALNSLNSIDDAQLTRIAPPRSHCCFWEVNAP (listed as Homo sapiens) [Neoantigen P35] | 2.67 | 0.064 | Yes | 3.47 | 14.44 | 0.03 | 0.26 |  |  |  |  |
| B1 |  |  |  |  |  |  |  | 113.91 | 4.02 | 0.43 | 0.35 |
| B2 |  |  |  |  |  |  |  | 128.76 | 6.35 | 0.18 | 0.6 |
